We go through 6 compounds from patent US20260125382A1, “COMPOUNDS FOR INHIBITING OR DEGRADING CDK2 AND/OR CDK9 AND MEDICINAL USE THEREOF” (KOREA RESEARCH INSTITUTE OF CHEMICAL TECHNOLOGY, priority 2022, published 2026).

One assay concerns the target T1, CDK2 (Homo sapiens, UniProt P24941).
T1 construct: endogenous in cells; host or cells: MDA-MB-231
Put plainly: CDK protein degradation activity (Western blotting), CDK2. The assay is classed as cell-based. The settings on record: MDA-MB-231 cells, 16 hours, Western blot. A digest of the protocol:
(§1)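 Protein levels were read by Western blot densitometry, tubulin serving as loading reference. Beforehand, MDA-MB-231 cells had been exposed for 16 hours to 100 nM, 1 μM or 10 μM compound, DMSO as control.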

The target in the next assay is T2, CDK9 (Homo sapiens, UniProt P50750).
T2 construct: endogenous in cells; host or cells: MDA-MB-231
Put plainly: CDK protein degradation activity (Western blotting), CDK9. The class given is cell-based. The settings on record: MDA-MB-231 cells, 16 hours, Western blot. The method, boiled down:
as §1

In another assay the target is T3, CDK2/cyclin A (Homo sapiens, UniProt P24941).
T3 construct: purchased Eurofins Scientific
The assay is described as follows: CDK protein inhibition, KINOMEscan (Eurofins), CDK2/cyclin A. The class given is binding.

SMILES strings stand for the structures.

T2 sequence (P50750 whole entry): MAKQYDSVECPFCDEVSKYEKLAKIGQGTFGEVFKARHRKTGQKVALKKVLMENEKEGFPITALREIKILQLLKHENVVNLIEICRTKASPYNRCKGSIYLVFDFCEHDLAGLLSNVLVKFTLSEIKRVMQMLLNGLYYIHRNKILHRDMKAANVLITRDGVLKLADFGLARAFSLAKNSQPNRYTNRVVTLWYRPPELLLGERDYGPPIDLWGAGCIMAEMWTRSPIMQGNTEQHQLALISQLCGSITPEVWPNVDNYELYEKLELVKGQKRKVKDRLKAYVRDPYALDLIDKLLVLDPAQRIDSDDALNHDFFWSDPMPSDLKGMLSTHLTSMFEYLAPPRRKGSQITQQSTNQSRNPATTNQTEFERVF

In general, IC50 refers to the concentration needed to halve the response being measured. With `Cc1cccc(C(=O)N[C@H]2C[C@@H](n3cnc4c(Nc5ccc(N6CCN(CC7CCN(C(=O)COc8cccc9c8C(=O)N(C8CCC(=O)NC8=O)C9=O)CC7)CC6)cc5)ncnc43)C2)n1` (stereo partly drawn) [Compound 91, N-((1s,3s)-3-(6-((4-(4-((1-(2-((2-(2,6-dioxopiperidin-3-yl)-1,3-dioxoisoindolin-4-yl)oxy)acetyl)piperidin-4-yl)methyl)piperazin-1-yl)phenyl)amino)-9H-purin-9-yl)cyclobutyl)-6-methylpicolinamide], on CDK2 (0.1 μM), the “Enzyme degradation CDK2 (% remaining) @ 0.1 μM” value is reported as 0/0/0%. The “Enzyme degradation CDK2 (% remaining) @ 1 μM” value at CDK2 (1 μM) was 0/0/0%. The “Enzyme degradation CDK2 (% remaining) @ 10 μM” value on CDK2 (10 μM) is recorded as 0/0/0%. Further, the “Enzyme degradation CDK9 (% remaining) @ 0.1 μM” value on CDK9 (0.1 μM) is reported as 0/0/0%. On CDK9 (1 μM), the “Enzyme degradation CDK9 (% remaining) @ 1 μM” value is given as 0/0/0%. Further, the “Enzyme degradation CDK9 (% remaining) @ 10 μM” value at CDK9 (10 μM) is listed as 0/0/0%. In addition, the IC50 against CDK2/cyclin A (Table 17, unit inferred) was determined as 613 nM.
For `Cc1cccc(C(=O)NC2CC(n3cnc4c(NCC5CCN(C(=O)CCCCCNc6cccc7c6C(=O)N([C@@H]6CCC(=O)NC6=O)C7=O)CC5)ncnc43)C2)n1` (stereo partly drawn) [Compound 66, N-((1r,3r)-3-(6-(((1-(6-((2-(2,6-dioxopiperidin-3-yl)-1,3-dioxoisoindolin-4-yl)amino)hexanoyl)piperidin-4-yl)methyl)amino)-9H-purin-9-yl)cyclobutyl)-6-methylpicolinamide], on CDK2/cyclin A, the “CDK2/cyclin A inhibition (%) (at concentration of 1 μM)” value was 78%.
Same read-out and setting: next, `Cc1cccc(C(=O)NC2CC(n3cnc4c(NC5CCN(C(=O)COCCOCCNC(=O)COc6ccc7c(c6)C(=O)N([C@H]6CCC(=O)NC6=O)C7=O)CC5)ncnc43)C2)n1` (stereo partly drawn) [Compound 7, N-((1s,3s)-3-(6-((1-(2-(2-(2-(2-((2-(2,6-dioxopiperidin-3-yl)-1,3-dioxoisoindolin-5-yl)oxy)acetamido)ethoxy)ethoxy)acetyl)piperidin-4-yl)amino)-9H-purin-9-yl)cyclobutyl)-6-methylpicolinamide]: 94%; `Cc1cccc(C(=O)NC2CC(n3cnc4c(NCC5CCN(C(=O)CCCCCNC(=O)COc6cccc7c6C(=O)N([C@@H]6CCC(=O)NC6=O)C7=O)CC5)ncnc43)C2)n1` (stereo partly drawn) [Compound 64, N-((1r,3r)-3-(6-(((1-(6-(2-((2-(2,6-dioxopiperidin-3-yl)-1,3-dioxoisoindolin-4-yl)oxy)acetamido)hexanoyl)piperidin-4-yl)methyl)amino)-9H-purin-9-yl)cyclobutyl)-6-methylpicolinamide]: 85%; `Cc1cccc(C(=O)NC2CC(n3cnc4c(NC5CCN(C(=O)CCCCCNc6ccc7c(c6)C(=O)N([C@@H]6CCC(=O)NC6=O)C7=O)CC5)ncnc43)C2)n1` (stereo partly drawn) [Compound 5, N-((1r,3r)-3-(6-((1-(6-((2-(2,6-dioxopiperidin-3-yl)-1,3-dioxoisoindolin-5-yl)amino)hexanoyl)piperidin-4-yl)amino)-9H-purin-9-yl)cyclobutyl)-6-methylpicolinamide]: 91%.
As for `Cc1cccc(C(=O)NC2CC(n3cnc4c(NCC5CCN(C(=O)CCCCCNC(=O)CNc6cccc7c6C(=O)N([C@@H]6CCC(=O)NC6=O)C7=O)CC5)ncnc43)C2)n1` (stereo partly drawn) [Compound 2, N-((1r,3r)-3-(6-(((1-(6-(2-((2-(2,6-dioxopiperidin-3-yl)-1,3-dioxoisoindolin-4-yl)amino)acetamido)hexanoyl)piperidin-4-yl)methyl)amino)-9H-purin-9-yl)cyclobutyl)-6-methylpicolinamide], the “CDK2/cyclin A inhibition (%) (at concentration of 1 μM)” value at CDK2/cyclin A came out at 84%.
